Entries after “also recorded” stand apart in the source; their conditions may differ. One block for each compound: values may come before it.
Assays:
[1] = target: T1, G. gallus AIR carboxylase (Gallus gallus, UniProt P38024); experiment: Test as alternative substrates for AIR carboxylase; assay type: biochemical; details: UV and HPLC analysis
T1 sequence (P38024 1-426): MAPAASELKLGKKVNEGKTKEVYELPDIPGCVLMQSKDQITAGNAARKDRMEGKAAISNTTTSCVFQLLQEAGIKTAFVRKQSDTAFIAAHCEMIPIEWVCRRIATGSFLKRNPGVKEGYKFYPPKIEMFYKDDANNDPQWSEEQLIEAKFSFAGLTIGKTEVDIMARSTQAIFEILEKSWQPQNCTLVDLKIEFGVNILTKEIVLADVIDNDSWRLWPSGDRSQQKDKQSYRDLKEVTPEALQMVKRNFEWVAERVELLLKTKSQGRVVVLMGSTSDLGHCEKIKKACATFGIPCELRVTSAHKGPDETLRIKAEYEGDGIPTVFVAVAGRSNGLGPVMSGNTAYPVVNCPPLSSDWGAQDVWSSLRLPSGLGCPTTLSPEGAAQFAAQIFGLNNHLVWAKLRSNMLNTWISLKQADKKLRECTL

[2] = target: T1, G. gallus AIR carboxylase; experiment: Inhibition of AIR carboxylase, CAIR decarboxylation assay; assay type: biochemical, G. gallus (chicken)
[3] = target: T1, G. gallus AIR carboxylase; details: cited from earlier work
[4] = system: N^5-CAIR mutase; details: fungal and bacterial N^5-CAIR mutase; cited from earlier work

SMILES: Nc1c(C(=O)O)nnn1[C@@H]1O[C@H](COP(=O)(O)O)[C@@H](O)[C@H]1O [Compound 10, 5-Amino-1-(β-D-ribofuranosyl)-1,2,3-triazole-4-carboxylate 5′-phosphate]
alternative substrate for the enzyme [1]: neither compound is an alternative substrate

fold difference in binding affinity, CAIR into CAPzR ([2]; compared to CAIR): 3 fold | binding affinity relative to CAIR ([2]; in words): greater affinity than CAIR
SMILES: Nc1c(C(=O)O)cnn1[C@@H]1O[C@H](COP(=O)(O)O)[C@@H](O)[C@H]1O [Compound 8, 5-Amino-1-(β-D-ribofuranosyl)pyrazole-4-carboxylate 5′-phosphate]

SMILES: Nc1c([N+](=O)[O-])ncn1[C@@H]1O[C@H](COP(=O)(O)O)[C@@H](O)[C@H]1O [Compound 3, 4-nitro-5-aminoimidazole ribonucleotide]
fold tighter affinity for the enzyme than CAIR ([3]; compared with CAIR): 10,000 fold | type of inhibition / kinetics ([3]; listed as NAIR): slow, tight binding inhibitor; also recorded: slow, tight-binding kinetics | type of inhibition [4]: steady-state competitive inhibitor

Source: article PMC2782746 (Bioorganic & medicinal chemistry, 2008)
